From ChEMBL document CHEMBL1201862, “PubChem BioAssay data set” (2004)
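Step 1: Grow cells in 96-well plates. Step 2: Expose to compound for 48 hours at 5 concentrations. Step 3: Interpolate endpoints linearly; if unreached, use highest concentration. Abbreviation: GI50, concentration required for 50% inhibition of growth.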 The source made the active and inactive calls. No stated cut-off is given here; in the data, active = GI50 up to about 1.1 µM and inactive = higher.

Tests used:
Experiment in all cases: DTP human tumour cell line panel, 48 h
HOP-18 = test system: HOP-18
LXFL 529 = test system: LXFL 529
M19-MEL = test system: M19-MEL
RXF 631 = test system: RXF 631
SNB-78 = test system: SNB-78
XF498 = test system: XF498

Measured: GI50

c1ccc2c(c1)nc1n2CSC1
inactive: HOP-18 > 100 µM | LXFL 529 > 100 µM | M19-MEL > 100 µM | RXF 631 > 100 µM | SNB-78 > 100 µM | XF498 > 100 µM

N#C/C(=C/c1ccco1)C(=O)c1ccccc1
inactive: HOP-18 > 100 µM | LXFL 529 > 100 µM | M19-MEL > 100 µM | RXF 631 > 100 µM | SNB-78 > 100 µM | XF498 > 100 µM

COc1cc(C2C(C(=O)Nc3ccccc3C)=C(C)NC(C)=C2C(=O)Nc2ccccc2C)ccc1O
inactive: HOP-18 > 100 µM | LXFL 529 > 100 µM | M19-MEL > 100 µM | RXF 631 > 100 µM | SNB-78 > 100 µM | XF498 87.5 µM
